Reference: ChEMBL document CHEMBL4321867, “Optimization of LpxC Inhibitor Lead Compounds Focusing on Efficacy and Formulation for High Dose Intravenous Administration” (J Med Chem, 2020)
Values after ≈ are worked out from the molar mass of the structure shown.

Legend:
[1] = tested on: Pseudomonas aeruginosa; assay: microbe, parasite or virus in culture; conditions: ATCC 27853
[2] = physchem; conditions: buffer, pH 9
[3] = tested on: T1, UDP-3-O-acyl-N-acetylglucosamine deacetylase (Pseudomonas aeruginosa (strain ATCC 15692 / PAO1 / 1C / PRS 101 / LMG12228)), P47205 [C40S]; conditions: 25 uM
T1 sequence (whole entry): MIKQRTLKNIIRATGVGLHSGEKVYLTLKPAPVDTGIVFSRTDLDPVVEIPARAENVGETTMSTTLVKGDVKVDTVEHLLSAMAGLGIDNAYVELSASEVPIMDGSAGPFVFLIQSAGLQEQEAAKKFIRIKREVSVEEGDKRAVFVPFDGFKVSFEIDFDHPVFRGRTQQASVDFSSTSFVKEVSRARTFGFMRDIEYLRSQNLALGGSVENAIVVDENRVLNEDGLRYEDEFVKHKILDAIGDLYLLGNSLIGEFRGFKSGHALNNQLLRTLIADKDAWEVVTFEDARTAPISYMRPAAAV

[4] = physchem; conditions: buffer, pH 7
[5] = physchem; conditions: n-octanol/phosphate buffer, pH 7.4
[6] = physchem
[7] = tested on: Klebsiella pneumoniae; assay: microbe, parasite or virus in culture; conditions: T6474
[8] = physchem; conditions: buffer, pH 4
[9] = tested on: Escherichia coli; assay: microbe, parasite or virus in culture; conditions: ATCC 25922
[10] = tested on: T2, UDP-3-O-acyl-N-acetylglucosamine deacetylase (Escherichia coli K-12), P0A725 [C125S]; conditions: 25 uM
T2 sequence (whole entry): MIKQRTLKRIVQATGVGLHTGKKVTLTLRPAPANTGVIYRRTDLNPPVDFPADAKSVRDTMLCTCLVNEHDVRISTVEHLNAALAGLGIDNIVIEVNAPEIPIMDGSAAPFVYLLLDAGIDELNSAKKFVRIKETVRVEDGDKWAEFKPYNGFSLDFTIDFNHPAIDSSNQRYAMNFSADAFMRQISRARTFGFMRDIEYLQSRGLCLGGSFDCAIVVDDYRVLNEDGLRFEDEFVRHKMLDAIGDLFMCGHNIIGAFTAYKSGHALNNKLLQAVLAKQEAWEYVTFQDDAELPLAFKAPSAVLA

Row | Structure (SMILES) | MIC [1] [µg/mL] | solubility at 24 h [2] [µg/mL] | deltaTm [3] [K] | solubility at 24 h [4] [µg/mL] | logD [5] | pKa [6] | MIC [7] [µg/mL] | solubility at 24 h [8] [µg/mL] | MIC [9] [µg/mL] | deltaTm [10] [K]
1 | C[C@@](CCN1Cc2cc(C#CC#CCN3CCC(O)CC3)cn2C1=O)(C(=O)NO)S(C)(=O)=O | 1 (≈ 2.1 µM) | > 810 | 11.5 | > 810 | 0.4 | 6.5 | 2 (≈ 4.2 µM) | > 810 | 1 (≈ 2.1 µM) | 9.5
2 | C[C@@](CCN1Cc2cc(C#CC#CC3CN(C4COC4)C3)cn2C1=O)(C(=O)NO)S(C)(=O)=O | 1 (≈ 2.11 µM) | 681 (≈ 1440 µM) | 12.6 | 128 (≈ 270 µM) | 0.5 | 5.5 | 0.5 (≈ 1.05 µM) | > 800 | 0.25 (≈ 0.527 µM) | 10.5
3 | CC(=O)N1CC(C#CC#Cc2cc3n(c2)C(=O)N(CC[C@](C)(C(=O)NO)S(C)(=O)=O)C3)C1 | 1 (≈ 2.17 µM) | > 780 | 12.4 | > 780 | 0.3 | – | 1 (≈ 2.17 µM) | > 780 | 1 (≈ 2.17 µM) | 9.7
4 | CN1CCC(F)(C#CC#Cc2cc3n(c2)C(=O)N(CC[C@](C)(C(=O)NO)S(C)(=O)=O)C3)CC1 | 1 (≈ 2.09 µM) | 203 (≈ 424 µM) | 12 | 384 (≈ 802 µM) | 1 | 8 | 1 (≈ 2.09 µM) | > 810 | 0.5 (≈ 1.04 µM) | 9.6
5 | CC(C)N1CC(C#CC#Cc2cc3n(c2)C(=O)N(CC[C@](C)(C(=O)NO)S(C)(=O)=O)C3)C1 | 0.5 (≈ 1.09 µM) | 420 (≈ 912 µM) | 11.2 | 398 (≈ 864 µM) | 1 | 8.3 | 0.25 (≈ 0.543 µM) | > 780 | 0.25 (≈ 0.543 µM) | 9.6
6 | CNC1(C#CC#Cc2cc3n(c2)C(=O)N(CC[C@](C)(C(=O)NO)S(C)(=O)=O)C3)CC1 | 0.5 (≈ 1.16 µM) | 486 (≈ 1120 µM) | 12.2 | 182 (≈ 421 µM) | 1.4 | 6.5 | 0.25 (≈ 0.578 µM) | 551 (≈ 1270 µM) | 0.12 (≈ 0.277 µM) | 10.6
7 | C[C@@](CCN1Cc2cc(C#CC#CC3CN(CC(F)F)C3)cn2C1=O)(C(=O)NO)S(C)(=O)=O | 1 (≈ 2.07 µM) | > 820 | 13.2 | 209 (≈ 433 µM) | 1.4 | 5.2 | 0.25 (≈ 0.518 µM) | > 820 | 0.06 (≈ 0.124 µM) | 10.6
8 | CN1CC(F)(C#CC#Cc2cc3n(c2)C(=O)N(CC[C@](C)(C(=O)NO)S(C)(=O)=O)C3)C1 | 2 (≈ 4.44 µM) | > 760 | 11.6 | 219 (≈ 486 µM) | 1.1 | 6.7 | 0.5 (≈ 1.11 µM) | > 760 | 0.12 (≈ 0.266 µM) | 8.1
9 | C[C@@](CCN1Cc2cc(C#CC#CC3CCN(C4COC4)CC3)cn2C1=O)(C(=O)NO)S(C)(=O)=O | 2 (≈ 3.98 µM) | > 850 | 13.2 | 329 (≈ 655 µM) | 1.1 | 6.2 | 1 (≈ 1.99 µM) | > 850 | 0.5 (≈ 0.995 µM) | 11.1
10 | CN1CCC(C#CC#Cc2cc3n(c2)C(=O)N(CC[C@](C)(C(=O)NO)S(C)(=O)=O)C3)CC1 | 1 (≈ 2.17 µM) | 574 (≈ 1250 µM) | 11.3 | > 780 | 0.2 | 9 | 4 (≈ 8.69 µM) | > 780 | 4 (≈ 8.69 µM) | 10.6
11 | CCN1CC(C#CC#Cc2cc3n(c2)C(=O)N(CC[C@](C)(C(=O)NO)S(C)(=O)=O)C3)C1 | 0.5 (≈ 1.12 µM) | > 750 | 10.4 | > 750 | 0.6 | 8.5 | 0.5 (≈ 1.12 µM) | > 750 | 0.25 (≈ 0.56 µM) | 9.3
